For six compounds, Survival results are on record in ChEMBL document CHEMBL1128051, “Radioprotective effects of -galactosylceramides” (1995).

SMILES strings stand for the structures. “And” between values parts separate entries of the source, which are not always exact repeats. Equal values may be shown once.

Holding throughout (type): functional
The test system of experiment [1] is Mus musculus. The experiment can be described thus: Evaluation of Radioprotective effect of the intravenously administered compound (0.1 mg/kg on day 0,4,8) after irradiation on mice with 9 Gy of X-ray on day 20.
Experiment [2] concerns Mus musculus. The experiment can be described thus: Evaluation of Radioprotective effect of the intravenously administered compound (0.1 mg/kg on day 0,4,8) after irradiation on mice with 9 Gy of X-ray on day 35.
Experiment [3] relates to Mus musculus. The experiment can be described thus: Evaluation of Radioprotective effect of the intravenously administered compound (0.1 mg/kg on day 0,4,8) after irradiation on mice with 9 Gy of X-ray on day 25.
The subject of experiment [4] is Mus musculus. Nature of the experiment: Evaluation of Radioprotective effect of the intravenously administered compound (0.1 mg/kg on day 0,4,8) after irradiation on mice with 9 Gy of X-ray on day 15.
Experiment [5] deals with Mus musculus. Nature of the experiment: Evaluation of Radioprotective effect of the intravenously administered compound (0.1 mg/kg on day 0,4,8) after irradiation on mice with 9 Gy of X-ray on day 10.

As for `CCCCCCCCCCCCCCCCCCCCCC[C@@H](O)C(=O)N[C@@H](CO[C@H]1O[C@@H](CO)[C@H](O)[C@H](O)[C@@H]1O)[C@H](O)[C@H](O)CCCCCCCCCCCCCC`, the Survival was 80% in the experiment on Mus musculus [1]; 90% and 80% with Mus musculus [2]; 80% in the experiment with Mus musculus [3]; 100% in the experiment on Mus musculus [4]; 100% with Mus musculus [5].
Regarding `CCCCCCCCCCCCCCCCCCCCCCCC(=O)N[C@@H](CO[C@H]1O[C@@H](CO)[C@H](O)[C@H](O)[C@@H]1O)C(O)[C@H](O)CCCCCCCCCCCCCC` (single isomer, unassigned), the Survival was 90% in the experiment with Mus musculus [1]; 90% with Mus musculus [2]; 90% in the experiment on Mus musculus [3]; 100% and 90% with Mus musculus [4]; 100% in the experiment with Mus musculus [5].
Turning to `CCCCCCCCCCCCCCC[C@@H](O)[C@H](CO[C@H]1O[C@@H](CO)[C@H](O)[C@H](O)[C@@H]1O)NC(=O)CCCCCCCCCCCCC` (stereo in doubt; form 2), the Survival in the experiment with Mus musculus [1], with Mus musculus [2] and in the experiment with Mus musculus [3] was 20% throughout.
`CCCCCCCCCCCCCCCCCCCCCCCC(=O)NC(CO[C@H]1O[C@@H](CO)[C@H](O)[C@H](O)[C@@H]1O)[C@H](O)CCCCCCCCCCCCCCC` (single isomer, unassigned): the Survival with Mus musculus [1] is 90%; with Mus musculus [2], 90%; in the experiment on Mus musculus [3], 90%; in the experiment on Mus musculus [4] it was 100%; with Mus musculus [5], 100%.
`CCCCCCCCCCCCCCCCCCCCCC[C@@H](O)C(=O)NC(CO[C@H]1O[C@@H](CO)[C@H](O)[C@H](O)[C@@H]1O)[C@H](O)CCCCCCCCCCCCCCC` (single isomer, unassigned): the Survival with Mus musculus [1] is 90%; in the experiment with Mus musculus [2], 90%; with Mus musculus [3] it was 90%; in the experiment on Mus musculus [4], 100%; in the experiment on Mus musculus [5], 100%.
Take `CCCCCCCCCCCCCCC[C@@H](O)[C@H](CO[C@H]1O[C@@H](CO)[C@H](O)[C@H](O)[C@@H]1O)NC(=O)CCCCCCCCCCCCC` (stereo in doubt; form 1): the Survival in the experiment with Mus musculus [1] was 90%; with Mus musculus [2], 90%; in the experiment with Mus musculus [3], 90%; in the experiment on Mus musculus [4], 100% and 90%; with Mus musculus [5], 100%.
